{"source": "patent EP1096004B1", "about": "“Pro-fragrance compounds” (THE PROCTER & GAMBLE COMPANY, priority 1996, dated 1997)", "assay": "Pro-Fragrant Hydrolysis Test (hydrolysis half-life by UV/Vis spectroscopy)", "assay_type": "physicochemical", "conditions": "acid hydrolysis at pH 0 (1N HCl), 90/10 dioxane/water, 30°C", "protocol": "Hydrolysis half-life is the measurement used to determine the ease with which the pro-fragrance compound undergoes acid hydrolysis and thereby releases its fragrance component(s) upon exposure to acid conditions. […] Preferably, pro-fragrance of the invention has a half-life at pH 2 of less than 60 minutes. For granular detergents, the more reactive pro-fragrances, that is, those with half-life at […] of less than one minute, are most suitable, although those having a half-life of less than 60 minutes at pH 0 are also useful. […]\nAll measurements are carried out using a Hewlett Packard 8452 A Diode Array Spectrophotometer using quartz 1 cm path length cuvette cells. […] The pH's are measured using an Orion 230 A standardized with pH 4 and pH 7 buffers. […]\nPro-fragrance is weighed out in a 10.00 ml volumetric flask using an analytical balance (Mettler AE 200) Precision is 1/10 mg. […] Hydrolysis time is measured, starting upon addition of the acid. […] The absorbance of the pro-fragrance solution (At) is followed at a regular series of time intervals, and the cuvette is kept in the water-bath at the above-indicated temperature between measurements. […] The wavelength at which the hydrolysis is followed is chosen at the wavelength of the absorbance maximum of the parent aldehyde or ketone.\nReaction half-lifes are determined using conventional procedures. […]"}
{"smiles": "CC(C)=CCCC(C)=CC(OC/C=C(\\C)CCC=C(C)C)OC/C=C(\\C)CCC=C(C)C", "note": "[Example 1, Digeranyl Citral Acetal]", "values": [{"measurement": "t 1/2 at 0 pH", "value": "less than one"}]}
